From ChEMBL document CHEMBL4765353, “Antitubercular polyhalogenated phenothiazines and phenoselenazine with reduced binding to CNS receptors” (Eur J Med Chem, 2020)
Values after ≈ are worked out from the molar mass of the structure shown.

How the values were obtained:
[1] = tested on: Vero; assay: Cytotoxicity against African green monkey Vero cells assessed as decrease in cell viability incubated for 72 hrs by resazurin assay; type: cell-based; details: Chlorocebus sabaeus
[2] = tested on: Mycobacterium tuberculosis; type: functional; details: 504 h, time 3 weeks, read-out: MIC100
[3] = Inhibition of NDH-2 in Mycobacterium tuberculosis H37Rv inverted membrane vesicles over expressing ndh gene by NADH oxygen consumption assay; type: cell membranes, Membrane vesicle
[4] = tested on: Mycobacterium tuberculosis; assay: Antitubercular activity against Mycobacterium tuberculosis H37Rv incubated for 4 days by Microplate Alamar Blue Assay; type: functional; details: 96 h, time 4 day
[5] = tested on: Mycobacterium tuberculosis H37Rv; assay: Inhibition of NDH-2 in Mycobacterium tuberculosis H37Rv inverted membrane vesicles over expressing ndh gene assessed as reduction in oxygen consumption at 50 uM by NADH oxygen consumption assay; type: cell membranes; details: Membrane vesicle
[6] = molecular target: 5-hydroxytryptamine receptor 2A (Homo sapiens, UniProt P28223); assay: Displacement of [3H]-Ketanserin from human 5HT2A receptor expressed in CHO-K1 cells; type: ADME, cell-based
Chain of 5-hydroxytryptamine receptor 2A (P28223 whole entry): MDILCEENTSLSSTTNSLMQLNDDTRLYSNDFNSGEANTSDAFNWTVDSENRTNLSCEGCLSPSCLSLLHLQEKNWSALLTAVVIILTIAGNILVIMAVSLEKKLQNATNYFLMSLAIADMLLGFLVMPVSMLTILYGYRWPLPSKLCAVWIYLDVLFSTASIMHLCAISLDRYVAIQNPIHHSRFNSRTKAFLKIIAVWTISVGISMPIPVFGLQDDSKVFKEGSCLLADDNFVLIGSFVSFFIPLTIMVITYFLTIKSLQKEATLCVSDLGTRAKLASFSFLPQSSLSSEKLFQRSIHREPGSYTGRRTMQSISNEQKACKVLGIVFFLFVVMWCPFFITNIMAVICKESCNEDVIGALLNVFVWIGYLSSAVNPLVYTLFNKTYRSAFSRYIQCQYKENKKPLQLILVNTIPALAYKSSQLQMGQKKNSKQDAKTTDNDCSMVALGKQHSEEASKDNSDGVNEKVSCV

[7] = tested on: Mycolicibacterium smegmatis; assay: Inhibition of NDH-2 in wild type Mycobacterium smegmatis mc24517 inverted membrane vesicles assessed as reduction in oxygen consumption at 50 uM by NADH oxygen consumption assay; type: cell membranes; details: Membrane vesicle
[8] = molecular target: 5-hydroxytryptamine receptor 6 (Homo sapiens, UniProt P50406); assay: Displacement of [3H]-LSD from human 5HT6 receptor expressed in HEK293 cells; type: cell-based
Chain of 5-hydroxytryptamine receptor 6 (P50406 whole entry): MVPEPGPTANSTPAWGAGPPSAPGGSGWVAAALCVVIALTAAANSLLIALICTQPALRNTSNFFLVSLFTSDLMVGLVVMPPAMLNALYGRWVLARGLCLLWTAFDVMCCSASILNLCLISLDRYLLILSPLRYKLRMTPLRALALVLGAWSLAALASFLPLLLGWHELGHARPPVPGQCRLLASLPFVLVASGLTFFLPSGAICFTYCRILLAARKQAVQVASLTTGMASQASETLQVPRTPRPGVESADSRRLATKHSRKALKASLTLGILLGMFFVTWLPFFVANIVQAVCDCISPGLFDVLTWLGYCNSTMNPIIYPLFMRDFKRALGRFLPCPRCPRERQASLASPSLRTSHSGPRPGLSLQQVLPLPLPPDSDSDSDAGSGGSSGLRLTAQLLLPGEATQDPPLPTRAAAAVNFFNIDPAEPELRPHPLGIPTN

[9] = tested on: HepG2; assay: Hepatotoxicity in human HepG2 cells at 50 uM incubated for 48 hrs by MTS assay; type: toxicity, cell-based; details: hepg2, 48 h
[10] = tested on: Mycobacterium tuberculosis; assay: Antitubercular activity against Mycobacterium tuberculosis H37Rv incubated for 7 days by Microplate Alamar Blue Assay; type: functional; details: 168 h, time 7 day
[11] = tested on: Mycobacterium tuberculosis; type: functional; details: H37Rv, 240 h, time 10 day
[12] = molecular target: D(2) dopamine receptor (Homo sapiens, UniProt P14416); assay: Displacement of [3H]-Raclopride from human D2 receptor (unknown origin) expressed in HEK293 cell membranes; parameters: species or system Cell membrane
Chain of D(2) dopamine receptor (P14416 whole entry): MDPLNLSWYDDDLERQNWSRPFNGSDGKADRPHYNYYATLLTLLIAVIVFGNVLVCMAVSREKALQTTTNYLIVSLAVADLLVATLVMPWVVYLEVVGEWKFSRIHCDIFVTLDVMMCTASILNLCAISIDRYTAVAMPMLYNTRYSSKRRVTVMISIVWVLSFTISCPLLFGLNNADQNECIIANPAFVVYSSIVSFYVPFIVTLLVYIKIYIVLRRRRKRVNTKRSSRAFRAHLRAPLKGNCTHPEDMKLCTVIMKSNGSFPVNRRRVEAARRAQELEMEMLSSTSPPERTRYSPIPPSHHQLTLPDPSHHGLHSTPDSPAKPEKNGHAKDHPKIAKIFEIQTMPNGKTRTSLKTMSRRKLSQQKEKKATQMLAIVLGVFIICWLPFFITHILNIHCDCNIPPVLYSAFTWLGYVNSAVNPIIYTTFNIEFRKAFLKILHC

[13] = molecular target: 5-hydroxytryptamine receptor 7 (Homo sapiens, UniProt P34969); assay: Displacement of [3H]-5-CT from human 5HT7 receptor expressed in HEK293 cells; type: cell-based
Chain of 5-hydroxytryptamine receptor 7 (P34969 whole entry): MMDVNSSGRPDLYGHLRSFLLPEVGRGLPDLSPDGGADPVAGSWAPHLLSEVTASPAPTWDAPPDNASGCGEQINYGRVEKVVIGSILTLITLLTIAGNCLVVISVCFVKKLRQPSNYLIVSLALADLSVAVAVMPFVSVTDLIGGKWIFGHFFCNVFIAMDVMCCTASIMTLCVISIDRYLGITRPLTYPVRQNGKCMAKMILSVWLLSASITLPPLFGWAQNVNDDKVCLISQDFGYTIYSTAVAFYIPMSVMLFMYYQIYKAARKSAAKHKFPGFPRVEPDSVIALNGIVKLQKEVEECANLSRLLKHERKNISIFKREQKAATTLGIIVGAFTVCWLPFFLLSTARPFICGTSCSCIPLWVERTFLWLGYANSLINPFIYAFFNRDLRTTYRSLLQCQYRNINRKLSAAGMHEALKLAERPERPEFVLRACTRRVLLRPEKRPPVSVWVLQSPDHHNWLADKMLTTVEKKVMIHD

[14] = Inhibition of NDH-2 in wild type Mycobacterium smegmatis mc24517 inverted membrane vesicles by NADH oxygen consumption assay; type: cell membranes, Mycolicibacterium smegmatis, Membrane vesicle
[15] = Metabolic stability in human liver microsomes by LC-MS/MS analysis; type: ADME, Microsome
[16] = tested on: HepG2; assay: Hepatotoxicity in human HepG2 cells at 10 uM incubated for 48 hrs by MTS assay; type: toxicity, cell-based; details: hepg2, 48 h

With Brc1ccc2c(c1)Sc1cc(Br)ccc1N2CCN1CCCC1 the IC50 [1] was 9.42 µg/mL (≈ 20.7 µM) and the MIC [2] was 2.57 µg/mL (≈ 5.66 µM).

In the case of CN(C)CCCN1c2ccc(Cl)cc2Sc2cc(Cl)cc(Cl)c21.Cl, the IC50 [1] is reported as 16.8 µg/mL and the MIC [2] is reported as 4.46 µg/mL.

Brc1ccc2c(c1)Sc1cc(Br)ccc1N2CCN1CCOCC1.Cl showed an IC50 [1] greater than 100 µg/mL and an MIC [2] greater than 100 µg/mL.

CN1CCCCC1CCN1c2c(Cl)cc(Cl)cc2Sc2cc(Cl)cc(Cl)c21.Cl (stereo not drawn) gave an IC50 [1] of 26.9 µg/mL, an IC50 [3] of 4.5 µg/mL and an MIC90 [4] of 3.1 µg/mL. For the same molecule, the MIC [2] was 1.55 µg/mL, the inhibition [5] was 74.2% and the Ki [6] was 1240 nM. For the same molecule, the inhibition [7] was 92.4%, the Ki [8] was 387 nM and the Activity [9] was “Non-Toxic”. It also gave an MIC90 [10] of 3.1 µg/mL, an MIC90 [11] of 2.89 µg/mL and a Ki [12] of 639 nM. The Ki [13] was 1000 nM and the IC50 [14] was 3.6 µg/mL.

Work on Brc1ccc2c(c1)Sc1cc(Br)ccc1N2CCCN1CCCC1.Cl yielded an IC50 [1] of 17.1 µg/mL and an MIC [2] of 1.45 µg/mL.

For N=c1sc(-c2ccc(F)cc2)nn1CC(=O)N1c2ccc(Br)cc2Sc2cc(Br)ccc21, the MIC [2] was greater than 50 µg/mL.

Work on CCCCCCCc1cc(O)c2ccccc2[n+]1[O-] yielded an inhibition [5] of 29.2% and an inhibition [7] of 18.1%.

CN(C)CCCN1c2ccccc2Sc2ccc(Cl)cc21 [CHLORPROMAZINE] gave an IC50 [1] of 26.5 µg/mL (≈ 83.2 µM), an MIC [2] of 4.41 µg/mL (≈ 13.8 µM) and an MIC90 [11] of 0.08 µg/mL (≈ 0.251 µM).

In the case of CN1CCCCC1CCN1c2ccccc2Sc2cc(Cl)ccc21.Cl (stereo not drawn), the IC50 [1] is reported as 30.7 µg/mL, the MIC [2] is reported as 5.48 µg/mL and the inhibition [5] is reported as 12.5%. It also gave an inhibition [7] of 47.5%.

CN1CCCCC1CCN1c2ccc(Br)cc2Sc2cc(Br)cc(F)c21.Cl (stereo not drawn) showed an IC50 [1] of 17.7 µg/mL and an MIC [2] of 2.65 µg/mL.

CN(C)CCCN1c2ccc(Br)cc2Sc2cc(Br)ccc21.Cl showed an IC50 [1] of 27 µg/mL, an MIC [2] of 2.38 µg/mL and an inhibition [5] of 40.7%. It also gave an inhibition [7] of 69.4%.

CN(C)CCCN1c2ccccc2Sc2cc(Cl)ccc21.Cl gave an IC50 [1] of 35.8 µg/mL and an MIC [2] of 6.59 µg/mL.

Cl.Clc1cc(Cl)c2c(c1)Sc1cc(Cl)cc(Cl)c1N2CCCN1CCCC1 showed an IC50 [1] of 18 µg/mL and an MIC [2] of 1.5 µg/mL.

Molecule Cl.Clc1cc(Cl)c2c(c1)Sc1cc(Cl)cc(Cl)c1N2CCCN1CCOCC1 has an MIC [2] greater than 50 µg/mL.

CC(=O)NC[C@H]1CN(c2ccc(N3CCOCC3)c(F)c2)C(=O)O1 [LINEZOLID] showed an MIC [2] of 0.87 µg/mL (≈ 2.58 µM).

For CN(C)CCCN1c2ccc(Br)cc2Sc2cc(Br)cc(F)c21.Cl, the IC50 [1] was 34.7 µg/mL and the MIC [2] was 5.7 µg/mL.

In the case of Brc1ccc2c(c1)Sc1cc(Br)ccc1N2CCCN1CCOCC1.Cl, the IC50 [1] is reported as greater than 50 µg/mL and the MIC [2] is reported as 5.52 µg/mL.

In the case of CN1CCCCC1CCN1c2ccc(Cl)cc2Sc2cc(Cl)ccc21.Cl (stereo not drawn), the IC50 [1] is reported as 17.9 µg/mL, the MIC [2] is reported as 2.4 µg/mL and the inhibition [5] is reported as 59.3%. For the same molecule, the inhibition [7] was 85.4% and the IC50 [14] was 6.5 µg/mL.

Molecule CN(C)CCCN1c2ccc(Cl)cc2Sc2cc(Cl)ccc21.Cl has an IC50 [1] of 16.7 µg/mL and an MIC [2] of 2.51 µg/mL.

Molecule CO[C@H]1/C=C/O[C@@]2(C)Oc3c(C)c(O)c4c(O)c(c(/C=N/N5CCN(C)CC5)c(O)c4c3C2=O)NC(=O)/C(C)=C\C=C\[C@H](C)[C@H](O)[C@@H](C)[C@@H](O)[C@@H](C)[C@H](OC(C)=O)[C@@H]1C [RIFAMPIN] has an MIC90 [4] of 0.06 µg/mL (≈ 0.0729 µM), an MIC [2] of 0.01 µg/mL (≈ 0.0122 µM) and an MIC90 [10] of 0.06 µg/mL (≈ 0.0729 µM). For the same molecule, the MIC90 [11] was greater than 128 µg/mL.

Molecule CN1CCCCC1CCN1c2ccc(Br)cc2Sc2cc(Br)ccc21.Cl (stereo not drawn) has an IC50 [1] of 18.3 µg/mL, an IC50 [3] of 11.2 µg/mL and an MIC90 [4] of 3.1 µg/mL. For the same molecule, the MIC [2] was 1.5 µg/mL, the inhibition [5] was 84.8% and the Stabilty [15] was “Unstable”. For the same molecule, the Ki [6] was 1750 nM, the inhibition [7] was 93.7% and the Activity [16] was “Toxic”. The Ki [8] was 758 nM, the MIC90 [10] was 3.1 µg/mL and the MIC90 [11] was 2.96 µg/mL. It also gave a Ki [12] of 688 nM, a Ki [13] of 2150 nM and an IC50 [14] of 4.7 µg/mL.

Molecule Brc1ccc2c(c1)Sc1cc(Br)ccc1N2Cc1ccccn1.Cl has an IC50 [1] greater than 100 µg/mL and an MIC [2] greater than 100 µg/mL.

Molecule CN1CCCCC1CCN1c2ccc(Cl)cc2Sc2cc(Cl)cc(Cl)c21.Cl (stereo not drawn) has an IC50 [1] of 19.2 µg/mL and an MIC [2] of 2.67 µg/mL.

CSc1ccc2c(c1)N(CCC1CCCCN1C)c1ccccc1S2 (stereo not drawn) [THIORIDAZINE] showed an IC50 [1] of 17.8 µg/mL (≈ 48 µM), an MIC [2] of 2.4 µg/mL (≈ 6.48 µM) and a Ki [8] of 71 nM. It also gave an MIC90 [11] of 5.29 µg/mL (≈ 14.3 µM) and a Ki [13] of 181 nM.

NNC(=O)c1ccncc1 [ISONIAZID] gave an MIC [2] of 0.25 µg/mL (≈ 1.82 µM) and an MIC90 [11] of 2.46 µg/mL (≈ 17.9 µM).

For CN1CCCCC1CCN1c2ccc(Br)cc2[Se]c2cc(Br)ccc21.Cl (stereo not drawn), the IC50 [1] was 17.6 µg/mL, the MIC [2] was 2.35 µg/mL and the Stabilty [15] was “Stable”. The Ki [6] was 1760 nM, the Activity [16] was “Non-Toxic” and the Ki [8] was 222 nM. For the same molecule, the Ki [12] was 367 nM and the Ki [13] was 2340 nM.
